Test results published in patent US5652097A, “In vitro test to evaluate the inhibition potency of angiotensin II antagonists on angiotensinogen” (priority 1994, dated 1997).

Assays:
[1] = system: expression of pOCAT (ANG N-1498/+18) in Hepa 1-6 cells; conditions: cited from earlier work
[2] = system: expression of pOGH (ANG N-1498/+18) in Hep G-TW7 cells; assay: Stimulation of expression of pOGH (ANG N-1498/+18) in stable Hep G-TW7 cells by angiotensins, IR-hGH by RIA; assay type: cell-based, human; conditions: 24 hours; for concentration giving maximal stimulation of expression of pOGH (ANG N-1498/+18): 10^-11 to 10^-5 mol/L tested
Protocol: The method for the selection of stable hepatoma transformants with high expression of pOGH (ANG N-1498/+18) was similar to that described previously for opossum kidney cells (Wang TT et al., Kidney Int., 1994, 46:703-710). Briefly, plasmids pOGH (ANG N-1498/+18) and pRSV-Neo fusion genes were co-transfected (20 μg each) into Hep G-2 cells (1×10^6 cells) utilizing calcium phosphate-mediated endocytosis (Ming M. et al., Am. J. Hypertens., 1993, 6:141-148). After transfection, the cells were cultured overnight in 5.0 ml of DMEM containing 10% FBS. Then the medium was replaced with fresh medium containing 10% FBS and 500 μg/ml of aminoglycoside G 418 (Geneticin, Gibco Inc.). The stable transformants which were able to grow in the presence of G 418 and which secreted high levels of IR-hGH into the medium were further subcloned using the method of limiting dilution. Those cells that had passed through at least three repetitions of limiting dilution and continued to secrete high levels of IR-hGH after three months in the presence of G 418 were considered to be stable clones. One clone of human hepatoma (Hep G-TW7) with pOGH (ANG N-1498/+18) integrated into the genomes of Hep G-2 cells was obtained. The clone (Hep G-TW7) was used in accordance with the present invention.
Hep G-TW7 cells were plated at a density of 1-2×10^5 cells/well in 6-well plates and incubated overnight in DMEM containing 1% depleted FBS (dFBS). Then cell growth was arrested by incubation in serum-free medium for 24 hours. Subsequently, various concentrations of AII (10^-11 to 10^-5 mol/L) were added to the culture medium containing 1% dFBS. At the end of the incubation period, media were collected and kept at -20° C. until assay for IR-hGH.
Cells were incubated for up to 24 hours in the presence of various concentrations of AII. Media were harvested after 24 hours of incubation and assayed for IR-hGH. Each point represents the mean ±S.D. of at least three dishes (*p<0.05, **p<0.01 and **p<0.005).Similar results were obtained from two other experiments. It appears that maximal stimulation of expression of the pOGH (ANG N-1498/+18) was found with 10^-9 mol/L AII (p<0.01). At other concentrations of AII, it appears that the stimulatory effect of AII is minimal or inhibited.
(§1) The radioimmunoassay kit for hGH (RIA-hGH) was a gift from NIADDK, NIH, USA. The double antibody RIA procedure was similar to that previously used for the radioimmunoassay of ovine placental lactogen (Chan JSD et al., Endocrinology, 1978, 102:1606-1613). NIAMDD-hGH-1 (AFP-4793 B) was used for both iodination and as a hormone standard.
Hep G-TW7 cells were plated at a density of 1-2×10^5 cells/well in 6-well plates and incubated overnight in DMEM containing 1% depleted fetal bovine serum (dFBS). […]

[3] = system: expression of pOGH (ANG N-1498/+18) fusion gene in Hep G-2 cells; assay: Transient gene transfection assay of pOGH (ANG N-1498/+18) in Hep G-2 cells, IR-hGH by RIA; assay type: cell-based, human; conditions: AII 10^-9 mol/L; for inhibition of the stimulatory effect of AII on expression of pOGH (ANG N-1498/+18): antagonist 10^-5 mol/L
Protocol: Plasmids or fusion genes were transfected into Hep G-2 cells utilizing calcium phosphate endocytosis as described previously (Ming M. et al., Am. J. Hypertens., 1993, 6:141-148). It was previously shown that optimal dose of DNA for gene transfection in mouse hepatoma (Hepa 1-6) cells is 20 μg of supercoiled DNA per 0.5-1×10^6 cells (Ming M. et al., Am. J. Hypertens., 1993, 6:141-148). Similar results were obtained in Hep G-2 cells. Thus, in present studies, a total of 20 μg DNA was routinely used in the cell transfection.
To study the effect of AII in the presence or absence of various AII antagonists on the expression of fusion gene in transient gene transfection assays, cells were incubated in DMEM without FBS, 10^-9 mol/L AII with or without 10^-5 mol/L AII antagonist were added on day 1 after DNA transfection. The media or cells were harvested on day 2 for assay of IR-hGH or CAT enzymatic activity, respectively.
In order to normalize the efficiency of transfection of pOGH (ANG N-1498/+18), 1 μg of pRSVCAT (a vector with the Rous Sarcoma Virus enhancer/promoter sequence fused to the 5'-end of the CAT coding sequence) was cotransfected with the pOGH (ANG N-1498/+18) (20 μg DNA). The results of pOGH (ANG N-1498/+18) were normalized to the efficiency of transfection of pRSVCAT. The levels of transfection efficiency for pOGH (ANG N-1498/+18) in human hepatoma cells was 25+12% as compared to pRSVCAT.
Results are expressed as the percentage of the control (without addition of AII antagonist, 100%), mean ±S.D. AII (10^-9 mol/L) stimulated the expression of the ANG-GH fusion gene by 1.4-fold (p<0.01) as compared to the control (absence of AII) in Hep G-2 cells. In the presence of Lorsatan™ (10^-5 mol/L) or Saralasin™ (10^-5 mol/L), the stimulatory effect of AII was inhibited.
as §1

[4] = system: expression of pOGH (ANG N-1498/+18) in Hep G-TW7 cells stimulated by AII; assay: Inhibition of AII-stimulated expression of pOGH (ANG N-1498/+18) in Hep G-TW7 cells, IR-hGH by RIA; assay type: cell-based, human; conditions: AII 10^-9 mol/L, 24 hours; for effect on the stimulatory effect of AII on expression of pOGH (ANG N-1498/+18): various concentrations of test substance
Protocol: Hep G-TW7 cells were plated at a density of 1-2×10^5 cells/well in a. 6-well plate and incubated overnight in DMEM containing 1% depleted FBS (dFBS). Then cell growth was arrested by incubation in serum-free medium for 24 hours. Subsequently, various concentrations (10^-9 to 10^-5 mol/L) of Lorsatan™, Saralasin™ and CGP 42112A™ were added to the culture medium containing 1% dFBS in the presence of 10^-9 mol/L AII and incubated for 24 hours. At the end of the incubation period, media were collected and kept at -20° C. until assay.
Cells were incubated for up to 24 hours in the presence of AII (10-9mol/L) and various concentrations of Lorsatan™ (10^-9 to 10^-5 mol/L) or Saralasin™ (10^-9 to 10^-5 mol/L) or CGP 42112A™ (10^-9 to 10^-5 mol/L). Media harvested and assayed for the level of IR-hGH.
Hep G-TW7 cells were plated at a density of 1-2×10^5 cells/well in a 6-well plate and incubated overnight in DMEM containing 1% dFBS. Then cells growth was arrested by incubation in serum-free medium for 24 hours. […] At the end of the incubation period, media were collected and kept at -20° C. until assay.
Media were harvested and assayed for the level of IR-hGH.
The radioimmunoassay kit for hGH (RIA-hGH) was a gift from NIADDK, NIH, USA. […] NIAMDD-hGH-1 (AFP-4793 B) was used for both iodination and as a hormone standard.

[5] = system: expression of pOCAT (ANG N-1498/+18) in hepatoma cells; assay: Transient gene transfection of pOCAT (ANG N-1498/+18) in the presence of hGH, CAT assay; assay type: cell-based, human; conditions: hGH as high as 4.5 mmol/L
From the text: The method for the CAT assay has been described previously (Ming M. et al., Am. J. Hypertens., 1993, 6:141-148). The results of all CAT assays are given as a mean+S.D. in triplicates.
In accordance with the present invention, the plasmid pOGH (ANG N-1498/+18) was employed to study the effect of AII (FIGS. 2 to 6). Since receptors for hGH are presented in Hep G-2 cells, this raised the possibility that the hGH secreted into the medium may have a stimulatory effect on the expression of the ANG gene. Thus, in order to investigate this possibility, transient gene transfection experiments were performed by employing pOCAT (ANG N-1498/+18) (Ming M. et al., Am. J. Hypertens., 1993, 6:141-148), in the presence of hGH. […] The use of plasmid pOGH (ANG N-1498/+18) in accordance with the present invention is appropriate.

Nc1ncnc2c1nc(Br)n2[C@@H]1O[C@@H]2COP(=O)(O)O[C@H]2[C@H]1O [8-Br-cAMP, 8-Bromo-cAMP]
effect on the stimulatory effect of dexamethasone on expression of ANG-CAT fusion genes ([1]; added with DEX): enhanced the stimulatory effect | effect on expression of ANG-CAT fusion genes, substance alone [1]: no stimulatory effect

CC[C@H](C)[C@H](NC(=O)[C@H](Cc1ccc(O)cc1)NC(=O)[C@@H](NC(=O)[C@@H](N)CCCNC(=N)N)C(C)C)C(=O)N[C@@H](Cc1c[nH]cn1)C(=O)N1CCC[C@H]1C(=O)N[C@@H](Cc1ccccc1)C(=O)O [AIII, angiotensin III]
effective dose for stimulating the expression of pOGH (ANG N-1498/+18) [2]: > 10^-5 mol/L

CCCCc1nc(Cl)c(CO)n1Cc1ccc(-c2ccccc2-c2nn[nH]n2)cc1 [Lorsatan]
inhibition of the stimulatory effect of AII on expression of pOGH (ANG N-1498/+18) [3]: inhibited | effect on the stimulatory effect of AII on expression of pOGH (ANG N-1498/+18) [4]: inhibits the stimulatory effect of AII | minimal effective concentration ([4]; Homo sapiens, read-out: effective dose for the inhibition of the AII-stimulated expression of pOGH (ANG N-1498/+18)): 0.001 µM

CNCC(=O)N[C@@H](CCCN=C(N)N)C(=O)N[C@H](C(=O)N[C@@H](Cc1ccc(O)cc1)C(=O)N[C@H](C(=O)N[C@@H](Cc1cnc[nH]1)C(=O)N1CCC[C@H]1C(=O)N[C@@H](C)C(=O)O)C(C)C)C(C)C [Saralasin]
inhibition of the stimulatory effect of AII on expression of pOGH (ANG N-1498/+18) [3]: inhibited | effective dose for the inhibition of the AII-stimulated expression of pOGH (ANG N-1498/+18) [4]: 10^-7 mol/L | effect on the stimulatory effect of AII on expression of pOGH (ANG N-1498/+18) [4]: inhibits the stimulatory effect of AII

CN[C@@H]1C[C@H]2O[C@@](C)([C@@H]1OC)n1c3ccccc3c3c4c(c5c6ccccc6n2c5c31)C(=O)NC4 [Staurosporine]
effect on the stimulatory effect of AII on expression of pOGH (ANG N-1498/+18) [4]: inhibits the stimulatory effect of AII

C[C@@H]1C[C@H]2[C@@H]3CCC4=CC(=O)C=C[C@]4(C)[C@@]3(F)[C@@H](O)C[C@]2(C)[C@@]1(O)C(=O)CO [dexamethasone]
effect on expression of ANG-CAT fusion genes, substance alone [1]: stimulates the expression

CGP 42112A
inhibition of the stimulatory effect of AII on expression of pOGH (ANG N-1498/+18) [3]: no inhibitory effect | effective dose for the inhibition of the AII-stimulated expression of pOGH (ANG N-1498/+18) [4]: > 10^-5 mol/L

angiotensin I (DRVYIHPFHL; Angiotensin-1; UniProt P01019 25-34, looked up) [AI]
concentration giving maximal stimulation of expression of pOGH (ANG N-1498/+18) [2]: 10^-7 mol/L

angiotensin II (DRVYIHPF; Angiotensin-2; UniProt P01019 25-32, looked up) [AII, peptide derived from angiotensinogen; stimulus of ANG gene expression]
stimulation of the expression of the ANG-GH fusion gene as compared to the control (absence of AII) ([3]; p<0.01, 0.001 µM): 1.4 fold | effective dose for stimulating the expression of pOGH (ANG N-1498/+18) [2]: 10^-9 mol/L | concentration giving maximal stimulation of expression of pOGH (ANG N-1498/+18) [2]: 10^-9 mol/L

hGH: human growth hormone
effect of hGH on expression of pOCAT (ANG N-1498/+18) [5]: No significant increase
